Test results reported in patent US9113629B2, “4-amino-6-(4-substituted-phenyl)-picolinates and 6-amino-2-(4-substituted-phenyl)-pyrimidine-4-carboxylates and their use as herbicides” (DOW AGROSCIENCES LLC, priority 2013, dated 2015).
Where two headings read alike, the source gives them in different places.

Experiments:
[1] = test system: Key Grass and Sedge Weeds as well as Grass Crops; assay: Post-emergent Test II herbicidal activity (Table 6); type: in vivo; settings: post-emergence, 336 h; for pest or weed control at 70 g/ha: 70 g ai/ha; for pest or weed control at 140 g/ha: 140 g ai/ha
Outline: (§1)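 Greenhouse post-emergent assay: seedlings (first/second true leaf) in Metro-Mix 360 were sprayed at 187 L/ha at a top rate plus twofold dilutions down to 1/16×; solvent-blank controls were included. Percent visual injury was read at 14 d.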

[2] = test system: Key Broadleaf Weed and Crop Species; assay: Post-emergent Test II herbicidal activity (Table 5); type: in vivo; settings: post-emergence, 336 h, 14 days after application; for pest or weed control at 70 g/ha: application rate 70 g ai/ha; for pest or weed control at 140 g/ha: application rate 140 g ai/ha
Outline: as §1

[3] = CYPES: yellow nutsedge (Cyperus esculentus), read-out: Visual Growth Reduction (%) 14 Days After Application, CYPES
[4] = DIGSA: crabgrass (Digitaria sanguinalis), read-out: Visual Growth Reduction (%) 14 Days After Application, DIGSA
[5] = ECHCG: barnyardgrass (Echinochloa crus-galli), read-out: Visual Growth Reduction (%) 14 Days After Application, ECHCG
[6] = ORYSA: rice (Oryza sativa), crop, read-out: Visual Growth Reduction (%) 14 Days After Application, ORYSA
[7] = SETFA: giant foxtail (Setaria faberi), read-out: Visual Growth Reduction (%) 14 Days After Application, SETFA
[8] = SORVU: grain sorghum (Sorghum vulgare), read-out: Visual Growth Reduction (%) 14 Days After Application, SORVU
[9] = TRZSS (wheat, Triticum aestivum), crop, read-out: Visual Growth Reduction (%) 14 Days After Application, TRZSS
[10] = ZEAMX: maize, corn (Zea mays), crop, read-out: Visual Growth Reduction (%) 14 Days After Application, ZEAMX
[11] = ABUTH: velvetleaf (Abutilon theophrasti), read-out: Visual Growth Reduction (%) 14 Days After Application, ABUTH
[12] = AMARE: redroot pigweed (Amaranthus retroflexus), read-out: Visual Growth Reduction (%) 14 Days After Application, AMARE
[13] = BRSNN: oilseed-rape, canola (Brassica napus), read-out: Visual Growth Reduction (%) 14 Days After Application, BRSNN
[14] = CHEAL: lambsquarters (Chenopodium album), read-out: Visual Growth Reduction (%) 14 Days After Application, CHEAL
[15] = EPHHL: wild poinsettia (Euphorbia heterophylla), read-out: Visual Growth Reduction (%) 14 Days After Application, EPHHL
[16] = HELAN: sunflower (Helianthus annuus), read-out: Visual Growth Reduction (%) 14 Days After Application, HELAN
[17] = VIOTR: wild pansy (Viola tricolor), read-out: Visual Growth Reduction (%) 14 Days After Application, VIOTR

COC(=O)c1nc(-c2ccc(F)cc2)c(F)c(N)c1Cl [Compound 204]
45 to 59%: pest or weed control at 140 g/ha [1, 7] | pest or weed control at 70 g/ha [1, 9]
0 to 29%: pest or weed control at 70 g/ha [1, 6] | pest or weed control at 140 g/ha [1, 6] | pest or weed control at 70 g/ha [1, 7]
95 to 100%: pest or weed control at 70 g/ha [1, 5] | pest or weed control at 140 g/ha [1, 5] | pest or weed control at 70 g/ha [2, 11] | pest or weed control at 140 g/ha [2, 11] | pest or weed control at 70 g/ha [2, 12] | pest or weed control at 140 g/ha [2, 12] | pest or weed control at 140 g/ha [2, 13] | pest or weed control at 70 g/ha [2, 14] | pest or weed control at 140 g/ha [2, 14] | pest or weed control at 70 g/ha [2, 15] | pest or weed control at 140 g/ha [2, 15] | pest or weed control at 70 g/ha [2, 16] | pest or weed control at 140 g/ha [2, 16] | pest or weed control at 140 g/ha [2, 17]
85 to 94%: pest or weed control at 70 g/ha [1, 3] | pest or weed control at 140 g/ha [1, 3] | pest or weed control at 140 g/ha [1, 8] | pest or weed control at 70 g/ha [2, 13]
60 to 74%: pest or weed control at 70 g/ha [1, 4] | pest or weed control at 140 g/ha [1, 4] | pest or weed control at 140 g/ha [1, 9]
75 to 84%: pest or weed control at 70 g/ha [1, 8] | pest or weed control at 70 g/ha [1, 10] | pest or weed control at 140 g/ha [1, 10] | pest or weed control at 70 g/ha [2, 17]
131 °C: melting point
